Data: publication PMC7588595, “Small-molecule active pharmaceutical ingredients of approved cancer therapeutics inhibit human aspartate/asparagine-β-hydroxylase” (Bioorganic & Medicinal Chemistry, 2020)

Target: T1, human AspH (His6-AspH315–758) (Homo sapiens, UniProt Q12797)
T1 construct: N-Terminally His6-tagged human AspH315–758 (His6-AspH315–758) was produced in Escherichia coli BL21 (DE3) cells; made in house; host or cells: Escherichia coli BL21 (DE3), pET-28a(+) vector
T1 sequence (Q12797 315-758): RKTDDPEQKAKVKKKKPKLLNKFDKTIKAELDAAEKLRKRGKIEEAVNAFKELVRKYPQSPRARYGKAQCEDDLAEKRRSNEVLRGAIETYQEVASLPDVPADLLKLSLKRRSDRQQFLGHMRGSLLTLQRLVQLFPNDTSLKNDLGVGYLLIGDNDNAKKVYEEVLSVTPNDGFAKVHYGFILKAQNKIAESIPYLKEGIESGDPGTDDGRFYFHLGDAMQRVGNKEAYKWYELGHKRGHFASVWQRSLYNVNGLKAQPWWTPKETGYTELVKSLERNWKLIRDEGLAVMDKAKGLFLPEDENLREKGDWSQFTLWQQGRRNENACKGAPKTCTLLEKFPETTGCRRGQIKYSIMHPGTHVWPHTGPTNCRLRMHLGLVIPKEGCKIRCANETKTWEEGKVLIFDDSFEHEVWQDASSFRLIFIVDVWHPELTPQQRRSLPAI
Test: SPE-MS AspH inhibition assay (hFX-CP101-119 substrate hydroxylation)
Type: biochemical
Conditions: AspH-inhibitor screening; for Plate 1 (% inhibition): 384-well Plate 1; for Plate 1 (% conversion): 384-well Plate 1, substrate conversion; for Plate 1-duplicate (% conversion): substrate conversion

Cn1cc(C[C@@H](N)C(=O)O)c2ccccc21 [1-methyl-D-tryptophan, 95%]
Plate 1 (% inhibition): 6.32% | Plate 1 (% conversion): 46.83% | Plate 1-duplicate (% inhibition): 9.06% | Plate 1-duplicate (% conversion): 47.55%

COc1cc2c(cc1O)CC[C@@H]1[C@@H]2CC[C@]2(C)[C@@H](O)CC[C@@H]12 [2-methoxyestradiol (Panzem)]
Plate 1 (% inhibition): 5.63% | Plate 1 (% conversion): 47.15% | Plate 1-duplicate (% inhibition): 3.64% | Plate 1-duplicate (% conversion): 50.24%

CC/C(=C(\c1ccc(O)cc1)c1ccc(OCCN(C)C)cc1)c1ccccc1 [4-hydroxytamoxifen]
Plate 1 (% inhibition): -45.98% | Plate 1 (% conversion): 70.98% | Plate 1-duplicate (% inhibition): -42.66% | Plate 1-duplicate (% conversion): 73.20%

C=CCNC1=C2C[C@@H](C)C[C@H](OC)[C@H](O)[C@@H](C)/C=C(\C)[C@H](OC(N)=O)[C@@H](OC)/C=C\C=C(/C)C(=O)NC(=CC1=O)C2=O [17-AAG (Tanespimycin, Geldanamycin)]
Plate 1 (% inhibition): -8.89% | Plate 1 (% conversion): 53.86% | Plate 1-duplicate (% inhibition): -13.53% | Plate 1-duplicate (% conversion): 58.75%

CO[C@H]1/C=C\C=C(/C)C(=O)NC2=CC(=O)C(NCCN(C)C)=C(C[C@@H](C)C[C@H](OC)[C@H](O)[C@@H](C)/C=C(\C)[C@@H]1OC(N)=O)C2=O [17-DMAG (Alvespimycin)]
Plate 1 (% inhibition): -4.95% | Plate 1 (% conversion): 52.04% | Plate 1-duplicate (% inhibition): -6.36% | Plate 1-duplicate (% conversion): 55.19%

COc1cc(O)c2c(c1)/C=C/C[C@H](O)[C@H](O)C(=O)/C=C\C[C@H](C)OC2=O [(5Z)-7-Oxozeaenol]
Plate 1 (% inhibition): 21.38% | Plate 1 (% conversion): 39.88% | Plate 1-duplicate (% inhibition): 23.66% | Plate 1-duplicate (% conversion): 40.31%

C[C@@H](C(=O)O)c1ccc(-c2ccccc2)c(F)c1 [(R)-Flurbiprofen (Tarenflurbil)]
Plate 1 (% inhibition): 10.59% | Plate 1 (% conversion): 44.86% | Plate 1-duplicate (% inhibition): 16.18% | Plate 1-duplicate (% conversion): 44.01%

CC1(C)CCC(c2ccc(Cl)cc2)=C(CN2CCN(c3ccc(C(=O)NS(=O)(=O)c4ccc(N[C@H](CCN5CCOCC5)CSc5ccccc5)c(S(=O)(=O)C(F)(F)F)c4)cc3)CC2)C1 [ABT-263 (Navitoclax)]
Plate 1 (% inhibition): 90.19% | Plate 1 (% conversion): 8.10% | Plate 1-duplicate (% inhibition): 90.05% | Plate 1-duplicate (% conversion): 7.38%

COc1ccc(S(=O)(=O)Nc2cccnc2Nc2ccc(O)cc2)cc1 [ABT-751]
Plate 1 (% inhibition): 4.88% | Plate 1 (% conversion): 47.50% | Plate 1-duplicate (% inhibition): 8.62% | Plate 1-duplicate (% conversion): 47.77%

Cc1ccc(F)c(NC(=O)Nc2ccc(-c3cccc4[nH]nc(N)c34)cc2)c1 [ABT-869_Linifanib]
Plate 1 (% inhibition): 24.64% | Plate 1 (% conversion): 38.37% | Plate 1-duplicate (% inhibition): 34.65% | Plate 1-duplicate (% conversion): 34.86%

C[C@]1(c2nc3c(C(N)=O)cccc3[nH]2)CCCN1 [ABT-888 (Veliparib)]
Plate 1 (% inhibition): 6.01% | Plate 1 (% conversion): 46.97% | Plate 1-duplicate (% inhibition): 4.15% | Plate 1-duplicate (% conversion): 49.98%

CC(C)(C)c1cc(NC(=O)Nc2ccc(-c3cn4c(n3)sc3cc(OCCN5CCOCC5)ccc34)cc2)no1 [AC220_Quizartinib]
Plate 1 (% inhibition): -19.26% | Plate 1 (% conversion): 58.64% | Plate 1-duplicate (% inhibition): -18.68% | Plate 1-duplicate (% conversion): 61.31%

CNCc1ccc(-c2[nH]c3cc(F)cc4c3c2CCNC4=O)cc1 [AG-014699_Rucaparib]
Plate 1 (% inhibition): 17.02% | Plate 1 (% conversion): 41.89% | Plate 1-duplicate (% inhibition): 9.37% | Plate 1-duplicate (% conversion): 47.39%

Cc1ccc(C(=O)Nc2ccc(CN3CCN(C)CC3)c(C(F)(F)F)c2)cc1C#Cc1cnc2cccnn12 [AP24534 (Ponatinib)]
Plate 1 (% inhibition): -64.76% | Plate 1 (% conversion): 79.66% | Plate 1-duplicate (% inhibition): -35.27% | Plate 1-duplicate (% conversion): 69.54%

O=C1NC(=O)[C@@H](c2cn3c4c(cccc24)CCC3)[C@@H]1c1c[nH]c2ccccc12 [ARQ 197_Tivantinib]
Plate 1 (% inhibition): -6.95% | Plate 1 (% conversion): 52.96% | Plate 1-duplicate (% inhibition): -13.62% | Plate 1-duplicate (% conversion): 58.79%

Cn1cnc2c(F)c(Nc3ccc(Br)cc3F)c(C(=O)NOCCO)cc21 [ARRY-162_MEK-162]
Plate 1 (% inhibition): -1.29% | Plate 1 (% conversion): 50.34% | Plate 1-duplicate (% inhibition): 1.23% | Plate 1-duplicate (% conversion): 51.43%

O=C(NC[C@H](O)CO)c1ccncc1Nc1ccc(I)cc1F [AS703026_Pimasertib]
Plate 1 (% inhibition): 12.00% | Plate 1 (% conversion): 44.21% | Plate 1-duplicate (% inhibition): 9.34% | Plate 1-duplicate (% conversion): 47.41%

O=C(Nc1c[nH]nc1-c1nc2ccc(CN3CCOCC3)cc2[nH]1)NC1CC1 [AT9283]
Plate 1 (% inhibition): -0.09% | Plate 1 (% conversion): 49.79% | Plate 1-duplicate (% inhibition): 2.46% | Plate 1-duplicate (% conversion): 50.82%

CN[C@@H](C)C(=O)N[C@H]1CN(C(=O)CC(C)C)CC[C@H]2CC[C@@H](C(=O)NC(c3ccccc3)c3ccccc3)N2C1=O [AT-406]
Plate 1 (% inhibition): 3.10% | Plate 1 (% conversion): 48.32% | Plate 1-duplicate (% inhibition): -2.44% | Plate 1-duplicate (% conversion): 53.25%

COc1cc2nccc(Oc3ccc(NC(=O)Nc4cc(C)on4)c(Cl)c3)c2cc1OC [AV-951 (Tivozanib)]
Plate 1 (% inhibition): 11.01% | Plate 1 (% conversion): 44.66% | Plate 1-duplicate (% inhibition): 0.70% | Plate 1-duplicate (% conversion): 51.69%

CC[C@H](CC#N)OC(=O)N[C@@H](C)c1cccc(NC(=O)Nc2ccc(-c3cnco3)c(OC)c2)c1 [AVN944]
Plate 1 (% inhibition): -7.04% | Plate 1 (% conversion): 53.00% | Plate 1-duplicate (% inhibition): -8.24% | Plate 1-duplicate (% conversion): 56.13%

CCN(CCO)CCCOc1ccc2c(Nc3cc(CC(=O)Nc4cccc(F)c4)[nH]n3)ncnc2c1 [AZD1152-HQPA]
Plate 1 (% inhibition): 1.19% | Plate 1 (% conversion): 49.20% | Plate 1-duplicate (% inhibition): 0.26% | Plate 1-duplicate (% conversion): 51.91%

Cc1cc(Nc2nc(N[C@@H](C)c3ncc(F)cn3)ncc2Cl)n[nH]1 [AZD1480]
Plate 1 (% inhibition): -0.12% | Plate 1 (% conversion): 49.81% | Plate 1-duplicate (% inhibition): 6.11% | Plate 1-duplicate (% conversion): 49.01%

CNC(=O)c1cccc(-c2ccc3c(N4CCOC[C@@H]4C)nc(N4CCOC[C@@H]4C)nc3n2)c1 [AZD2014]
Plate 1 (% inhibition): 7.73% | Plate 1 (% conversion): 46.18% | Plate 1-duplicate (% inhibition): 4.94% | Plate 1-duplicate (% conversion): 49.59%

Cn1cnc2c(F)c(Nc3ccc(Br)cc3Cl)c(C(=O)NOCCO)cc21 [AZD6244 (Selumetinib)]
Plate 1 (% inhibition): 5.13% | Plate 1 (% conversion): 47.38% | Plate 1-duplicate (% inhibition): 5.57% | Plate 1-duplicate (% conversion): 49.28%

COc1ccc(-c2ccc3c(N4CCOC[C@@H]4C)nc(N4CCOC[C@@H]4C)nc3n2)cc1CO [AZD8055]
Plate 1 (% inhibition): 0.34% | Plate 1 (% conversion): 49.59% | Plate 1-duplicate (% inhibition): 4.92% | Plate 1-duplicate (% conversion): 49.60%
